Assay results from patent US8828988B2 (Tetraphase Pharmaceuticals, Inc., priority 2009, dated 2014).
In brackets after ≈: the same amount, converted by molar mass. Read-outs that look alike come from different tables or passages of the source.

Experiments:
[1] = tested on: E. coli DH10B(pBAD-tetM), expressing tet(M); experiment: MIC against recombinant E. coli expressing tet(M); format: cell-based; conditions: for MIC: Escherichia coli
Text: (§1) Constructs were transformed into E. coli DH10B for expression. Recombinant strains were pre-induced under optimized conditions with L-arabinose prior to use as inocula in CLSI standardized MIC assays.

[2] = tested on: Staphylococcus aureus SA161, HA-MRSA, tetracycline-resistant, tet(M); experiment: MIC assay, SA161; format: cell-based; conditions: Table 8, read-out: MIC S. aureus MRSA, tetM
[3] = tested on: Streptococcus pneumoniae SP106, ATCC 49619; experiment: MIC assay, SP106; format: cell-based; conditions: ATCC49619, Table 8, read-out: MIC S. pneumoniae ATCC 49619
[4] = tested on: Escherichia coli EC107, ATCC 25922; experiment: MIC assay, EC107; format: cell-based; conditions: ATCC25922, Table 8, read-out: MIC E. coli ATCC 25922
[5] = tested on: Streptococcus pneumoniae SP160, tetracycline-resistant, tet(M); experiment: MIC assay, SP160; format: cell-based; conditions: Table 8, read-out: MIC S. pneumoniae tetM
[6] = tested on: E. faecalis clinical isolates; experiment: MIC50, MIC90 and MIC range, panel of clinical isolates (Example 20); format: cell-based; conditions: 24 isolates, in µg/mL
Protocol: (§2) The assays were run as follows.
(§3) Both values, as well as the MIC range (the lowest and highest MIC value observed for a collection of organisms), were determined for the isolates listed in Table 3.

[7] = tested on: S. pneumoniae clinical isolates; experiment: as above; format: cell-based; conditions: 19 isolates, in µg/mL
Protocol: as §2, §3

[8] = tested on: S. aureus clinical isolates; experiment: as above; format: cell-based; conditions: MRSA, 30 isolates; in µg/mL
Protocol: as §2, §3

[9] = tested on: tet(K) strains of S. aureus; experiment: MIC, CLSI methodology, recent clinical isolates (Example 21); format: cell-based; conditions: Staphylococcus aureus, read-out: MIC against tet(K) strains of S. aureus
Protocol: as §2
(§4) The antibacterial activities of Compounds MIC values were determined according to CLSI methodology. Recent clinical isolates were obtained from Eurofins-Medinet. Antibiotics were obtained from standard commercial sources.

[10] = tested on: tet(M) and tet(S) strains of E. faecalis; experiment: as above; format: cell-based; conditions: Enterococcus faecalis, read-out: MIC against tet(M) and tet(S) strains of E. faecalis
Protocol: as §2, §4

[11] = tested on: tet(M) strains of S. pneumoniae; experiment: as above; format: cell-based; conditions: Streptococcus pneumoniae, read-out: MIC against tet(M) strains of S. pneumoniae
Protocol: as §2, §4

[12] = tested on: tet(M) strains of S. aureus; experiment: as above; format: cell-based; conditions: Staphylococcus aureus, read-out: MIC against tet(M) strains of S. aureus
Protocol: as §2, §4

[13] = tested on: E. coli S30 extract system, coupled in vitro transcription/translation, firefly luciferase readout; experiment: In vitro transcription/translation (TnT) assay; format: biochemical
[14] = tested on: Enterococcus faecalis EF159, tetracycline-resistant, tet(M); experiment: MIC assay, EF159; format: cell-based; conditions: Table 8, read-out: MIC E. faecalis tetM
[15] = tested on: Staphylococcus aureus SA158, tetracycline-resistant tet(K); experiment: MIC assay, SA158; format: cell-based; conditions: Table 8, read-out: MIC S. aureus tetK
[16] = tested on: Enterococcus faecalis EF103, ATCC 29212; experiment: MIC assay, EF103; format: cell-based; conditions: Enterococcus faecalis, ATCC29212; Table 8; read-out: MIC E. faecalis ATCC 29212
[17] = tested on: E. coli DH10B(pBAD-tetK), expressing tet(K); experiment: MIC against recombinant E. coli expressing tet(K); format: cell-based; conditions: for MIC: Escherichia coli
Text: as §1

[18] = tested on: Staphylococcus aureus SA101, ATCC 29213, MSSA; experiment: MIC assay, SA101; format: cell-based; conditions: Table 8, read-out: MIC S. aureus ATCC 29213
[19] = tested on: Escherichia coli EC155, tetracycline-resistant, tet(A); experiment: MIC assay, EC155; format: cell-based; conditions: Table 8, read-out: MIC E. coli tetA

CN(C)CC(C)(C)CNc1nc(F)c2c(c1O)C(=O)C1=C(O)[C@]3(O)C(=O)C(C(N)=O)=C(O)[C@@H](N(C)C)[C@@H]3C[C@@H]1C2 [Compound 133]
MIC ([1]; read-out: MIC, TetM induced): 2 µg/mL
MIC ([1]; read-out: MIC, Uninduced): 0.5 µg/mL
Ratio (TetM induced / Uninduced) ([1]; ratio of MICs): 4
Effect of expression of (tet)M on activity ([1]; result in words): minimally affected
MIC [2]: 2 µg/mL (≈ 3.56 µM)
MIC [3]: 0.5 µg/mL (≈ 0.89 µM)
MIC [4]: 1 µg/mL (≈ 1.78 µM)
MIC [5]: 1 µg/mL (≈ 1.78 µM)
MIC Range [6]: 0.25-4
MIC Range [7]: <=0.016-0.25
MIC Range [8]: 0.5-8
MIC [9]: ≤ 1 µg/mL
MIC [10]: ≤ 4 µg/mL
MIC [11]: ≤ 0.25 µg/mL
MIC [12]: ≤ 8 µg/mL
TnT IC50 [13]: 0.56 µg/mL
IC50, in vitro transcription/translation system ([13]; E. coli S30 extract, luciferase readout): 0.6 µg/mL (≈ 1.07 µM)
MIC [14]: 2 µg/mL (≈ 3.56 µM)
MIC [15]: 0.5 µg/mL (≈ 0.89 µM)
MIC [16]: 0.5 µg/mL (≈ 0.89 µM)
MIC ([17]; read-out: MIC, TetK Induced): 1 µg/mL
MIC ([17]; read-out: MIC, Uninduced): 2 µg/mL
MIC ratio, TetK induced to uninduced ([17]; ratio of TetK induced to uninduced MIC): 0.5
Effect of expression of (tet)K on activity ([17]; result in words): unaffected
MIC [18]: 1 µg/mL (≈ 1.78 µM)
MIC [19]: 8 µg/mL (≈ 14.2 µM)
